Assay results as given in patent publication US20130156701A1, “METHOD OF PREPARING ETHACRYNIC AMIDE DERIVATIVES AND APPLICATION THEREOF” (NATIONAL TSING HUA UNIVERSITY, priority 2011, published 2013).
Values belong to the compound of their own block, whether it stands above or below them.

Columns and labels:
[1] = PET imaging of the liver of the TAA-treated CCA rat; type: in vivo; details: CCA rat receiving TAA for 18 weeks
Procedure: The rats were anesthetized using 1 L/min 2% isoflurane (100% oxygen). After the rats had been anesthetized, they were given ^18F-FBuEA (11 MBq) via the lateral tail vein. After the injection, the rats were fixed in the prone position on a carbon bed.
Dynamic imaging (0-120 min) single-frame scans were acquired with a small-animal PET camera (microPET R4; Concorde Microsystems Inc.). The region of interest (ROI) was disposed in the tumor region by hand, the image reconstructions of ROI were processed with ASIPro software (Concorde Microsystems INC.). Using microPET, the tumor volumes were determined by the intake of ^18F-FBuEA (% ID/g).
Being a promising imaging probe, [^18F]FBuEA should be capable of detecting a disease at its early stage. […] Then the CCA rat along with the normal rat was subsequently imaged with [^18F]FBuEA 5 days later. […] The same CCA rat after feeding for 23 weeks of TAA was imaged again with [^18F]FBuEA but the imaging time was shortened to 5-10 min for optimization test (FIG. 11(D) and (E)). Whereas the tumor lesion was still dark and the cold spot was similar to that of 18 week rat. From the above comparisons, the optimized imaging sampling times appeared to be 0-30 min.

[2] = parent ethacrynic acid, comparison value; cited from earlier work
[3] = system: A549 cells; experiment: trypan blue exclusion assay, cell viability after FBuEA treatment; type: cell-based, human; details: 48 hr, read-out: IC50 (concentration required to decrease 50% cell viability)
Procedure: (§1) Human lung cancer cell line A549, human erythroleukemia cell line (HEL) and human embryonic kidney 293T cell line were cultivated in the RPMI-1640 medium (GIBCO) supplemented with 10% fetal bovine serum, 100 U/mL penicillin, 0.1 mg/mL streptomycin and 2 mM L-glutamine (GIBCO) at 37° C. in 5% CO2 incubator. 293T was a non-tumorigenic cell line as a […] control in cell viability experiment.
(§2) To detect the cytotoxicity effects of FBuEA (compound of formula 10), A549 and HEL were treated with different concentration of FBuEA for 48 hr and compared with 293T. For the cytotoxicity study, trypan blue exclusion assay was performed to quantity the cell viability, 5×10^4 cells and the medium with different concentration of FBuEA (from 0 to 20 µM) were loaded in the 48-well plates for 48 hr. After 48 hr, cells mixed with trypan blue (GIBICO), just count the cells that have excluded the dye. Each count repeated three times and calculated the average of concentration. The cytotoxicity effects of EBuEA to A549, HEL and 293T cells were indicated by IC50 value (comparing with untreated cells, the concentration of EBuEA required to decrease 50% cell viability).

[4] = system: HEL cells; experiment: as above; type: cell-based, human; details: 48 hr, read-out: IC50 (concentration required to decrease 50% cell viability)
Procedure: as §1, §2

[5] = system: 293T cells; experiment: as above; type: cell-based, human; details: 48 hr, read-out: IC50 (concentration required to decrease 50% cell viability)
Procedure: as §1, §2

SMILES: OC[C@H]1OC(O)[C@H]([18F])[C@@H](O)[C@@H]1O (some centres unmarked) [[^18F]FDG, [^18F]fluorodeoxyglucose, reference compound]
PET signal at the tumor lesion [1]: significant hot spot

SMILES: C=C(CC)C(=O)c1ccc(OCC(=O)O)c(Cl)c1Cl [ethacrynic acid]
plasma half-life [2]: 30 to 60 min

IC50 [3]: 14 µM
SMILES: C=C(CC)C(=O)c1ccc(OCC(=O)NCCCCF)c(Cl)c1Cl [FBuEA, N-(4-fluorobutyl)ethacrynic amide]
IC50 [4]: 5 µM
IC50 [5]: 20 µM
